In assay [1] the target is glucose oxidase (GOx) (Aspergillus niger, UniProt P13006). The assay can be described thus: luminescent (ROS-Glo) H2O2-detection enzyme assay, counter-screen. It counts as biochemical.
Assay [2] concerns the target T1, Quiescin sulfhydryl oxidase 1 (QSOX1) (Homo sapiens, UniProt O00391).
T1 construct: amino acids 33–546 of QSOX1-S, N-terminal poly-histidine tag (rQSOX1)
T1 sequence (O00391 33-546): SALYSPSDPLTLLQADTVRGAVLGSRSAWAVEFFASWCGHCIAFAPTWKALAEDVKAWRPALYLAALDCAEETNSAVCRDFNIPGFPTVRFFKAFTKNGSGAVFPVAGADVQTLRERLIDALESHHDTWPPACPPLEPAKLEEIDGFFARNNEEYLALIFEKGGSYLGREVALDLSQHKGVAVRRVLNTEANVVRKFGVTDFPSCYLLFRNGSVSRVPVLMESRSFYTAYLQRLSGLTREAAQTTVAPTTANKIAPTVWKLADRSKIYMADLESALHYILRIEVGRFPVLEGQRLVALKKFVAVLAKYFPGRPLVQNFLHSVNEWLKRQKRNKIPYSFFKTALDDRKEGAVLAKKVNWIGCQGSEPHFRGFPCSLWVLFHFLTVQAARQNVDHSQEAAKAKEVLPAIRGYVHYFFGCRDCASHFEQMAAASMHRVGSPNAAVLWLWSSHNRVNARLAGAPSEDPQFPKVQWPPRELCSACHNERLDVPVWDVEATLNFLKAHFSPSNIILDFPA
The experiment in a line: intact-protein LC-ESI-MS of covalent adducts and maleimide protection assay; IC50 from purified-enzyme luminescent H2O2 assay, confirmed by HVA fluorescence assay. It counts as biochemical.

glucose oxidase (GOx), sequence (P13006 17-605): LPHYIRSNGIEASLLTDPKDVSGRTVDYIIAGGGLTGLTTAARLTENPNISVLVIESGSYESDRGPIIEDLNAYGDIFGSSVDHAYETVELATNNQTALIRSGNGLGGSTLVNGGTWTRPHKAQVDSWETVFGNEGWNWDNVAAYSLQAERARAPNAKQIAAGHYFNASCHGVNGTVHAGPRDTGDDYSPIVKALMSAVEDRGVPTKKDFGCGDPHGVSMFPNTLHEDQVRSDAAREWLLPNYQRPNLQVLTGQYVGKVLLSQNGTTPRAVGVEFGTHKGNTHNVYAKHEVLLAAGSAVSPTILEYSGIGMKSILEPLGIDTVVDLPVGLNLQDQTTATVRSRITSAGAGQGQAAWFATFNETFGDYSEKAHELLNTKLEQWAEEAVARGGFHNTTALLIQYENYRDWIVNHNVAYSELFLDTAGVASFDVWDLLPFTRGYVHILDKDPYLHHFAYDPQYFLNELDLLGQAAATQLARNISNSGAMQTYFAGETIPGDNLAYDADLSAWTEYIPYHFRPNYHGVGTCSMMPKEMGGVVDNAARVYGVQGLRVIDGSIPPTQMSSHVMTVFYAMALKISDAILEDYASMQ

The term IC50 denotes the concentration needed to halve the response being measured. Lower therefore signals greater potency. Regarding `O=c1c2ccccc2[se]n1-c1ccccc1` [ebselen, 2-phenyl-1,2-benzisoselenazol-3(2H)-one], the results for the IC50 in assay [1] and in assay [2] were 20.5 µM and 5.4 µM, respectively.

Source of the values: PMC4621900, “Ebselen inhibits QSOX1 enzymatic activity and suppresses invasion of pancreatic and renal cancer cell lines” (Oncotarget, 2015).
